pIC50: −log10 of the molar value. The source made the active and inactive calls. No cut-off for these calls is given here.
Key:
[1] = Cytotoxicity against human RD cells assessed as reduction in cell viability after 72 hrs by CCK-8 assay
[2] = Stability in mouse liver microsomes; assay type: ADME, microsome
[3] = Clearance in CD-1 mouse at 2 mg/kg, iv administered as single dose; assay type: ADME, organism-based; settings: in vivo
[4] = Elimination half life in CD-1 mouse at 2 mg/kg, iv administered as single dose; assay type: ADME, organism-based; settings: in vivo, read-out: beta t1/2 (converted)
[5] = Volume of distribution in CD-1 mouse at 2 mg/kg, iv administered as single dose; assay type: ADME, organism-based; settings: in vivo
[6] = AUC in CD-1 mouse at 2 mg/kg, iv administered as single dose; assay type: ADME, organism-based; settings: in vivo
[7] = Cmax in CD-1 mouse at 5 mg/kg, ip administered as single dose; assay type: ADME, organism-based; set-up: dose 5 mg/kg, route intraperitoneal; settings: in vivo
[8] = Tmax in CD-1 mouse at 5 mg/kg, ip administered as single dose; assay type: ADME, organism-based; settings: in vivo
[9] = AUC in CD-1 mouse at 5 mg/kg, ip administered as single dose; assay type: ADME, organism-based; settings: in vivo
[10] = […] bioavailability in CD-1 mouse at 5 mg/kg, ip administered as single dose; assay type: ADME, organism-based; settings: in vivo, intraperitoneal
Mus musculus [11] = assay: Toxicity in ICR mouse infected with EV71 695F assessed as death at 100 mg/kg, ip qd administered for 7 days measured on day 5; assay type: organism-based; settings: in vivo, 168 h
Mus musculus [12] = assay: Toxicity in ICR mouse infected with EV71 695F assessed as death at 50 mg/kg, ip qd administered for 7 days measured on day 6; assay type: organism-based; settings: in vivo, 168 h
[13] = Cmax in CD-1 mouse at 5 mg/kg, po administered as single dose; assay type: ADME, organism-based; set-up: dose 5 mg/kg, route oral; settings: in vivo
[14] = Tmax in CD-1 mouse at 5 mg/kg, po administered as single dose; assay type: ADME, organism-based; settings: in vivo
[15] = AUC in CD-1 mouse at 5 mg/kg, po administered as single dose; assay type: ADME, organism-based; settings: in vivo
[16] = […] bioavailability in CD-1 mouse at 5 mg/kg administered as single dose; assay type: ADME, organism-based; settings: in vivo, po
[17] = biological target: Voltage-gated inwardly rectifying potassium channel KCNH2 (Homo sapiens, UniProt Q12809); assay: Inhibition of human ERG expressed in CHO-K1 cells by Qpatch assay
Sequence of Voltage-gated inwardly rectifying potassium channel KCNH2 (Q12809 whole entry): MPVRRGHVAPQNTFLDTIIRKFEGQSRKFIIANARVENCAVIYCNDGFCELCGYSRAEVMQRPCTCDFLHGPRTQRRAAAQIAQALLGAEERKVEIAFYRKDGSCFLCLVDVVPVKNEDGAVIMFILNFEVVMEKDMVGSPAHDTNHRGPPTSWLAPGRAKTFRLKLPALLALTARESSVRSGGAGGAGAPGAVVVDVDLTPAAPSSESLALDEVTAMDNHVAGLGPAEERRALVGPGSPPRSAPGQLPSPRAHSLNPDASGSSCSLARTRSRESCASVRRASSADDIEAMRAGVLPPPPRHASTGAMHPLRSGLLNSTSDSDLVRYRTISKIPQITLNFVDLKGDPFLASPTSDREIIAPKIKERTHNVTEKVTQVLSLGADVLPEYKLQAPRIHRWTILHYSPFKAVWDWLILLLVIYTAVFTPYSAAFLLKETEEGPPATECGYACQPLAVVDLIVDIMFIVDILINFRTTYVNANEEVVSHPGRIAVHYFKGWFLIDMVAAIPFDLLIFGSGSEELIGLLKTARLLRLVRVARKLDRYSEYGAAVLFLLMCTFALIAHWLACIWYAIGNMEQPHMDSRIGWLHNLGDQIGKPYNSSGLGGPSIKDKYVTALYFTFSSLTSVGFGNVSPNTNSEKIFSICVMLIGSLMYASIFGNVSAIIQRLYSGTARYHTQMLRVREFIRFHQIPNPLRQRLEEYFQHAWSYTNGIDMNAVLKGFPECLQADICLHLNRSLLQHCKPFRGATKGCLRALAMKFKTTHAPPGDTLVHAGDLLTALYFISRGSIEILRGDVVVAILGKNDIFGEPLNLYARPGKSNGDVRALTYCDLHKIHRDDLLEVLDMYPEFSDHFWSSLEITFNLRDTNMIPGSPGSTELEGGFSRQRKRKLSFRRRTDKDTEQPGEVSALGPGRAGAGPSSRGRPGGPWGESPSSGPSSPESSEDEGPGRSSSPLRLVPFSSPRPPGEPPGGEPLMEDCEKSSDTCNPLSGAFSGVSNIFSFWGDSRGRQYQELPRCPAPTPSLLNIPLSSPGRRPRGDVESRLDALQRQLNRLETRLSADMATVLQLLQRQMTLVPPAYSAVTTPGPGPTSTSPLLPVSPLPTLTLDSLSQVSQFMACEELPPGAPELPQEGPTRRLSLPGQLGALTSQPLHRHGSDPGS

Enterovirus A71 [18] = assay: Antiviral activity against EV71 695F infected in ICR mouse assessed as protection against viral infection by measuring mouse survival at 0.4 mg/kg, ip qd administered for 7 days dosed prior to viral infection measured on day 14 relative to control; assay type: functional; settings: Enterovirus A
Enterovirus A71 [19] = assay: Antiviral activity against EV71 695F infected in ICR mouse assessed as decrease in body weight loss at 0.4 mg/kg, ip qd administered for 7 days dosed prior to viral infection measured for 2 weeks; assay type: functional, organism-based
Enterovirus A71 [20] = assay: Antiviral activity against EV71 695F infected in ICR mouse assessed as effect on clinical score at 0.4 mg/kg, ip qd administered for 7 days dosed prior to viral infection measured for 2 weeks; assay type: functional, organism-based
Enterovirus A71 [21] = assay: Antiviral activity against EV71 695F infected in ICR mouse assessed as protection against viral infection by measuring mouse survival at 10 mg/kg, ip qd administered for 7 days dosed prior to viral infection measured for 2 weeks relative to control; assay type: functional; settings: Enterovirus A
Enterovirus A71 [22] = assay: Antiviral activity against EV71 695F infected in ICR mouse assessed as protection against viral infection by measuring mouse survival at 10 mg/kg, ip qd administered for 7 days dosed after viral infection measured for 2 weeks relative to control; assay type: functional; settings: Enterovirus A
Enterovirus A71 [23] = assay: Antiviral activity against EV71 695F infected in ICR mouse assessed as decrease in body weight loss at 10 mg/kg, ip qd administered for 7 days dosed prior to viral infection measured for 2 weeks; assay type: functional, organism-based
Enterovirus A71 [24] = assay: Antiviral activity against EV71 695F infected in ICR mouse assessed as decrease in body weight loss at 10 mg/kg, ip qd administered for 7 days dosed after viral infection measured for 2 weeks; assay type: functional, organism-based
Enterovirus A71 [25] = assay: Antiviral activity against EV71 695F infected in ICR mouse assessed as effect on clinical score at 10 mg/kg, ip qd administered for 7 days dosed prior to viral infection measured for 2 weeks; assay type: functional, organism-based
Enterovirus A71 [26] = assay: Antiviral activity against EV71 695F infected in ICR mouse assessed as effect on clinical score at 10 mg/kg, ip qd administered for 7 days dosed after viral infection measured for 2 weeks; assay type: functional, organism-based

Compound	CC50 at 72 h ([1]; RD cells)	clearance [3]	half-life [4]	Vd [5]	AUC [6]	Cmax [7]	Tmax [8]	AUC [9]	bioavailability [10]	also measured
O=C1N(CCCCCOc2ccc(-c3ccc(Cl)cc3)cc2)CCN1c1ccncc1	> 100 µM	28 mL/min/kg	240 min	9 L/kg	2.73 µM·h	453 nM	2 h	4.28 µM·h	64%	Stability [2]: 40 to 50 µL/min/mg
NC(=O)c1ncn([C@@H]2O[C@H](CO)[C@@H](O)[C@H]2O)n1 [RIBAVIRIN]										Activity (Mus musculus [11]): Toxic; Activity (Mus musculus [12]): Toxic
CCn1ncc2cc(OCCCCCN3CCN(c4ccnc(N)c4)S3(=O)=O)ccc21	> 100 µM									
O=C1N(CCCCc2cc3cc(-c4ccc(Cl)cc4)ccc3o2)CCN1c1ccncc1	4.3 µM									
CCO/N=C1\CCCc2cc(OCCCCCN3CCN(c4ccnc(N)c4)S3(=O)=O)ccc21	> 100 µM									
O=S1(=O)N(CCCCCOc2ccc(-c3ccc(Cl)cc3)cc2)CCN1c1ccncc1	> 100 µM	12 mL/min/kg	360 min	5 L/kg	5.71 µM·h	682 nM	2 h	9.01 µM·h	63%	Stability [2]: < 10 µL/min/mg; Cmax [13]: 617 nM; Tmax [14]: 2 h; AUC [15]: 6.17 µM·h; bioavailability [16]: 43%; pIC50 [17]: < 4.52
CCO/N=C/c1ccc(OCCCCCN2CCN(c3ccnc(N)c3)S2(=O)=O)cc1		36 mL/min/kg	96 min	3.2 L/kg	0.592 µM·h	1440 nM	0.5 h	2.45 µM·h	79%	CC50 at 72 h ([1]; rd): > 100 µM
CCO/N=C/c1ccc(OCCC(C)CCN2CCN(c3ccnc(N)c3)C2=O)cc1 (configuration not stated)		105 mL/min/kg	18 min	2.4 L/kg	0.371 µM·h	1560 nM	0.3 h	1.71 µM·h	92%	CC50 at 72 h ([1]; rd): 5 µM
O=C1N(CCCCC2CCc3cc(-c4ccc(Cl)cc4)ccc3O2)CCN1c1ccncc1 (configuration not stated)		6 mL/min/kg	300 min	3 L/kg	11 µM·h	3360 nM	1 h	23.2 µM·h	86%	CC50 at 72 h ([1]; rd): 3.4 µM; Stability [2]: 40 to 50 µL/min/mg
O[C@H]1[C@H]2c3cc4c(cc3CN3CCC(=C[C@@H]1O)[C@H]23)OCO4 [LYCORINE]										survival at 0.4 mg/kg (Enterovirus A71 [18]): 30%; Activity (Enterovirus A71 [19]): Active; Activity (Enterovirus A71 [20]): Active
CCO/N=C(\C)c1ccc(OCCCCCN2CCN(c3ccnc(N)c3)S2(=O)=O)cc1	> 100 µM									
O=C1CN(c2ccncc2)CCN1CCCCCOc1ccc(-c2ccc(Cl)cc2)cc1		21 mL/min/kg	360 min	10 L/kg	3.34 µM·h	1260 nM	2 h	8.95 µM·h	112%	CC50 at 72 h ([1]; rd): 3.2 µM; Stability [2]: 40 to 50 µL/min/mg
CCc1noc2cc(OCCCCCN3CCN(c4ccnc(N)c4)S3(=O)=O)ccc12	> 100 µM									
O=C1N(CCCCc2nc3cc(-c4ccc(Cl)cc4)ccc3o2)CCN1c1ccncc1	> 100 µM									
CCn1ccc2cc(OCCCCCN3CCN(c4ccnc(N)c4)S3(=O)=O)ccc21	> 100 µM									
CCO/N=C1\CCc2cc(OCCCCCN3CCN(c4ccnc(N)c4)S3(=O)=O)ccc21		34 mL/min/kg	90 min	2.8 L/kg	0.821 µM·h	2150 nM	0.7 h	3.87 µM·h	88%	CC50 at 72 h ([1]; rd): 42 µM; survival at 10 mg/kg (Enterovirus A71 [21]): 100%; survival at 10 mg/kg (Enterovirus A71 [22]): 100%; Activity (Enterovirus A71 [23]): Active; Activity (Enterovirus A71 [24]): Active; Activity (Enterovirus A71 [25]): Active; Activity (Enterovirus A71 [26]): Active
CCO/N=C(\CC)c1ccc(OCCCCCN2CCN(c3ccnc(N)c3)S2(=O)=O)cc1	> 100 µM									
Nc1cc(N2CCN(CCCCCOc3ccc(-c4ccc(Cl)cc4)cc3)S2(=O)=O)ccn1	> 100 µM									

Reference: ChEMBL document CHEMBL4190331, “Discovery of Potent EV71 Capsid Inhibitors for Treatment of HFMD” (ACS Med Chem Lett, 2017)
